Assay results published in ChEMBL document CHEMBL1909046, “DrugMatrix in vitro pharmacology data”.

Assays:
[1] = target: Mitogen-activated protein kinase 3 (Homo sapiens, UniProt P27361); experiment: DRUGMATRIX: Protein Serine/Threonine Kinase, ERK1 enzyme inhibition (substrate: Myelin Basic Protein); set-up: species or system Escherichia coli; conditions: Not Active = under 50% inhibition at 10 µM
[2] = target: T1, 3-hydroxy-3-methylglutaryl-coenzyme A reductase (Homo sapiens, UniProt P04035); set-up: species or system Escherichia coli;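 also: enzyme inhibition assay of HMG-CoA reductase using radiolabeled [14C]HMG-CoA as substrate; in other assays of this panel Not Active means under 50% inhibition at 10 µM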
T1 sequence (P04035 whole entry): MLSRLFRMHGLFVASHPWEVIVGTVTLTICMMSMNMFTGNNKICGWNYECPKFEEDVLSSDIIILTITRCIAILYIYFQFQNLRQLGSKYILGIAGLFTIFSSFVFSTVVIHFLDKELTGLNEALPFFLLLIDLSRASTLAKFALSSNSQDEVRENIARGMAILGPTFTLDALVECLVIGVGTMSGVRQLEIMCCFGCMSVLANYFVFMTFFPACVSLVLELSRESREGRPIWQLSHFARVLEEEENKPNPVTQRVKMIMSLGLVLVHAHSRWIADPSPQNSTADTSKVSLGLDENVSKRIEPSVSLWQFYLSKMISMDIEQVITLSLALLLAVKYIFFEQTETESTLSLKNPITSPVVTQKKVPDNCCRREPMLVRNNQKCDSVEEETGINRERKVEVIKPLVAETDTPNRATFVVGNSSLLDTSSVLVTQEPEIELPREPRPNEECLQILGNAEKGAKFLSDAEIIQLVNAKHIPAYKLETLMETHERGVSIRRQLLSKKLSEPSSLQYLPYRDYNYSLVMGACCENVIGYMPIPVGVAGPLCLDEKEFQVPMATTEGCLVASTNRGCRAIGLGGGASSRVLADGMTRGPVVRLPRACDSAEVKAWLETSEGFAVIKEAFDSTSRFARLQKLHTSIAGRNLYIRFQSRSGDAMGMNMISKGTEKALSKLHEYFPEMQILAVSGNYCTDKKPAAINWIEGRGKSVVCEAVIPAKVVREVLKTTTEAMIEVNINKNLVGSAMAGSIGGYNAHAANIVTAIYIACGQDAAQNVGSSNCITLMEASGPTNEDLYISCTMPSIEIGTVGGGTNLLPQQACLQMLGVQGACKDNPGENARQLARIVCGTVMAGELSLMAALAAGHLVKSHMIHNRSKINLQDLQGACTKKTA

Melanocortin receptor 3 = Melanocortin receptor 3 (Homo sapiens, UniProt P41968); format: cell membranes, HEK293, Membrane; conditions: hek293; also: in other assays of this panel Not Active means under 50% inhibition at 10 µM
Chain of Melanocortin receptor 3 (P41968 whole entry): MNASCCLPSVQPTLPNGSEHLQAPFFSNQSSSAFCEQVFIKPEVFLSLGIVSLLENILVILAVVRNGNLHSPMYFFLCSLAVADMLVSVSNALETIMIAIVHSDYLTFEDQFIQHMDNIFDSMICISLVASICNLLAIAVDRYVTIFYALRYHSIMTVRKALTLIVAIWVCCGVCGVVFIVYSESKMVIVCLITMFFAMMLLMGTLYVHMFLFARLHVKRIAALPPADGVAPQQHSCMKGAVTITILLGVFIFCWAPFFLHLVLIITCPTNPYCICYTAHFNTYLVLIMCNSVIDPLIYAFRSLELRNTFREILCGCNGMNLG

[3] = DRUGMATRIX: Glutamate, Kainate radioligand binding (ligand: [3H] Kainic acid); format: cell membranes, Rattus norvegicus, Wistar, Brain, Membrane; conditions: Not Active = under 50% inhibition at 10 µM
[4] = target: Mitogen-activated protein kinase 14 (Homo sapiens, UniProt Q16539); set-up: species or system Escherichia coli;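 also: inhibition of p38alpha enzyme activity in a biochemical kinase assay, with myelin basic protein serving as substrate; in other assays of this panel Not Active means under 50% inhibition at 10 µM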
Chain of Mitogen-activated protein kinase 14 (Q16539 whole entry): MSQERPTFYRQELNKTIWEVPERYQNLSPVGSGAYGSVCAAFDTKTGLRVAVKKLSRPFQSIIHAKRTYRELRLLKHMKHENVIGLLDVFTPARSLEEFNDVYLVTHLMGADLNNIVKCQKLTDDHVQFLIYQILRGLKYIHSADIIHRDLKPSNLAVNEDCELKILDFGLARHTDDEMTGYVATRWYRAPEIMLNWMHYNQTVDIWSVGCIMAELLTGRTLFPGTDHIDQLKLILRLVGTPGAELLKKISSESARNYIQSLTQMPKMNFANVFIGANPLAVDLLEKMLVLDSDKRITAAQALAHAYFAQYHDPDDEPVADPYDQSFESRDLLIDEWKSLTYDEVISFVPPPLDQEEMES

[5] = target: T2, 5-hydroxytryptamine receptor 2C (Homo sapiens, UniProt P28335); experiment: DRUGMATRIX: Serotonin (5-Hydroxytryptamine) 5-HT2C radioligand binding (ligand: [3H] Mesulergine); format: cell membranes, CHO-K1, Membrane; conditions: cho-k1; Not Active = under 50% inhibition at 10 µM
T2 sequence (P28335 whole entry): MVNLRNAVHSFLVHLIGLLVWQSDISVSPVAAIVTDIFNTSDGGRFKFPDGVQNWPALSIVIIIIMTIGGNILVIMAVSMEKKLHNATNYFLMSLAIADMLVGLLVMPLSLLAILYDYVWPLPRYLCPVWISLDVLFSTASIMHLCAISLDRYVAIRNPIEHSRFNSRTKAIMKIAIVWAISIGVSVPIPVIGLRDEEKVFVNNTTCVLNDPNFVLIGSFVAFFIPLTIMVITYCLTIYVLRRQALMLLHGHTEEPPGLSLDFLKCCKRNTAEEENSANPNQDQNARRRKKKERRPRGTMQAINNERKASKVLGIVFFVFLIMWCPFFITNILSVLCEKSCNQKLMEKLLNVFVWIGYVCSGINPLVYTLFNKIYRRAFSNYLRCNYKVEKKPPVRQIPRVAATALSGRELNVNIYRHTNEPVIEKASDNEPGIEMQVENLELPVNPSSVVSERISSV

[6] = target: T3, Angiotensin-converting enzyme (Oryctolagus cuniculus, UniProt P12822); format: tissue-based, Lung;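 also: enzymatic inhibition of angiotensin-converting enzyme measured with FAPGG as the substrate; in other assays of this panel Not Active means under 50% inhibition at 10 µM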
T3 sequence (P12822 whole entry): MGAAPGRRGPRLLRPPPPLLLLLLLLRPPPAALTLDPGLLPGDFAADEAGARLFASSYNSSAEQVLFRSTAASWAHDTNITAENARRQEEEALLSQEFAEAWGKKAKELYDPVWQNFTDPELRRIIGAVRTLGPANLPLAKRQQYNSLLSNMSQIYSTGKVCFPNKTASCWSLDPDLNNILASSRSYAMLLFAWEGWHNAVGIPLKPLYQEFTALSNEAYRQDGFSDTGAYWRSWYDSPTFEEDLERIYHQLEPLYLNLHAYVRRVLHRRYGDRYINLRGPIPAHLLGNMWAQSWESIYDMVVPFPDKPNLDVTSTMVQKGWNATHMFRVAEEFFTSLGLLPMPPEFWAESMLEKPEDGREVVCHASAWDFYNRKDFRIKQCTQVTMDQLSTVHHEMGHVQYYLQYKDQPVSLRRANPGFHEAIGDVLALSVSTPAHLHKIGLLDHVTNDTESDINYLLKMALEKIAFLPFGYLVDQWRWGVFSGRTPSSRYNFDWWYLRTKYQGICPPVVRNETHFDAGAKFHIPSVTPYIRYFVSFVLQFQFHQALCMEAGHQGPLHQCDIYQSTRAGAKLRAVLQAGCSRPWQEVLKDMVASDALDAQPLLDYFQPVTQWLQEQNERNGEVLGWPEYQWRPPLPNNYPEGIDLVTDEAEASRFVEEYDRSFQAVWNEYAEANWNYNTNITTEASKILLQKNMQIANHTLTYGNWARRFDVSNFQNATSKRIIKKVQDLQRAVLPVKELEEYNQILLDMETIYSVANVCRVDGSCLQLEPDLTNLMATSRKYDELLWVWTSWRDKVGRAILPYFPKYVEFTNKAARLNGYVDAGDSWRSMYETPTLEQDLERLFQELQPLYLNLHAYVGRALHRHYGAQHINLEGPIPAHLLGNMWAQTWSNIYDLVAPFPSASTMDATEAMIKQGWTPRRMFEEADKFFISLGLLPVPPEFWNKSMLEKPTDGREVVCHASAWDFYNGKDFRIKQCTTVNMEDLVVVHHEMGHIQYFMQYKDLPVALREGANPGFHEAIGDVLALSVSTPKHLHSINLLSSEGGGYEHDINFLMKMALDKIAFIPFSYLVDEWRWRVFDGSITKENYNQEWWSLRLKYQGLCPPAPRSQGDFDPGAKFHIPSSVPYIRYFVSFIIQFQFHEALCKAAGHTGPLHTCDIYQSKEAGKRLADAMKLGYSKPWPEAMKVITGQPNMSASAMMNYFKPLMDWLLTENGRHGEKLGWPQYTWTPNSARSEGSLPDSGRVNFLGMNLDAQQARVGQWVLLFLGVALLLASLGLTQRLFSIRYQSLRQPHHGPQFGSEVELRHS

Chain of Mitogen-activated protein kinase 3 (P27361 whole entry): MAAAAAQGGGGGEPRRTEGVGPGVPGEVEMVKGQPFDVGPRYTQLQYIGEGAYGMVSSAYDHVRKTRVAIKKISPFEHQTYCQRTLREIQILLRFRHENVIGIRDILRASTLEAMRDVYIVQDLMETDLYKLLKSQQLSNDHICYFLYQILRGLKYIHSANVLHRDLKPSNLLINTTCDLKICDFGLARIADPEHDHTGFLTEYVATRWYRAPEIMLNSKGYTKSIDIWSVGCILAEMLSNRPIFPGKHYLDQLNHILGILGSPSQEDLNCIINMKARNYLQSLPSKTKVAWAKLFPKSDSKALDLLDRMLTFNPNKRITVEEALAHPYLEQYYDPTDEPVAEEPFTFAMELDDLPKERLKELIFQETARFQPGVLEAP

O=C(N/N=C/c1ccc([N+](=O)[O-])o1)c1cc([N+](=O)[O-])cc([N+](=O)[O-])c1O [NIFURSOL]
Not Active: IC50 [1] | IC50 [2] | IC50 (Melanocortin receptor 3) | IC50 [3] | Ki [3] | IC50 [4] | IC50 [5] | IC50 [6]

COc1cc2nc(N3CCN(C(=O)c4ccco4)CC3)nc(N)c2cc1OC [PRAZOSIN]
Not Active: IC50 [1] | IC50 [2] | IC50 (Melanocortin receptor 3) | IC50 [3] | Ki [3] | IC50 [4] | IC50 [5] | IC50 [6]

CC(C)NNC(=O)c1ccncc1 [IPRONIAZID]
Not Active: IC50 [1] | IC50 [2] | IC50 (Melanocortin receptor 3) | IC50 [3] | Ki [3] | IC50 [4] | IC50 [5] | IC50 [6]

COc1cc([C@@H]2c3cc4c(cc3[C@@H](O[C@@H]3O[C@@H]5CO[C@@H](C)O[C@H]5[C@H](O)[C@H]3O)[C@H]3COC(=O)[C@H]23)OCO4)cc(OC)c1O [ETOPOSIDE]
Not Active: IC50 [1] | IC50 [2] | IC50 (Melanocortin receptor 3) | IC50 [3] | Ki [3] | IC50 [4] | IC50 [5] | IC50 [6]

CC(C(=O)O)c1cccc(Oc2ccccc2)c1 (stereo not given) [FENOPROFEN]
Not Active: IC50 [1] | IC50 [2] | IC50 (Melanocortin receptor 3) | IC50 [3] | Ki [3] | IC50 [4] | IC50 [5] | IC50 [6]

COc1ccc2c3c1O[C@H]1C[C@@H](O)C=C[C@@]31CCN(C)C2 [GALANTAMINE]
Not Active: IC50 [1] | IC50 [2] | IC50 (Melanocortin receptor 3) | IC50 [3] | Ki [3] | IC50 [4] | IC50 [5] | IC50 [6]

O=C(O)CCNC(=O)c1ccccc1 [BETAMIPRON]
Not Active: IC50 [1] | IC50 [2] | IC50 (Melanocortin receptor 3) | IC50 [3] | Ki [3] | IC50 [4] | IC50 [5] | IC50 [6]

C#C[C@]1(OC(C)=O)CC[C@H]2[C@@H]3CCC4=C[C@@H](OC(C)=O)CC[C@@H]4[C@H]3CC[C@@]21C [ETHYNODIOL DIACETATE]
Not Active: IC50 [1] | IC50 [2] | IC50 (Melanocortin receptor 3) | IC50 [3] | Ki [3] | IC50 [4] | IC50 [5] | IC50 [6]

Oc1cccc(O)c1O [PYROGALLOL]
Not Active: IC50 [1] | IC50 [2] | IC50 (Melanocortin receptor 3) | IC50 [3] | Ki [3] | IC50 [4] | IC50 [5] | IC50 [6]

O=C/C=C/c1ccccc1
Not Active: IC50 [1] | IC50 [2] | IC50 (Melanocortin receptor 3) | IC50 [3] | Ki [3] | IC50 [4] | IC50 [5] | IC50 [6]

CN/C(=N\CCSCc1nc[nH]c1C)NC#N [CIMETIDINE]
Not Active: IC50 [1] | IC50 [2] | IC50 (Melanocortin receptor 3) | IC50 [3] | Ki [3] | IC50 [4] | IC50 [5] | IC50 [6]

C[n+]1ccc(-c2cc[n+](C)cc2)cc1.[Cl-].[Cl-] [PARAQUAT DICHLORIDE]
Not Active: IC50 [1] | IC50 [2] | IC50 (Melanocortin receptor 3) | IC50 [3] | Ki [3] | IC50 [4] | IC50 [5] | IC50 [6]

CCCN(CCC)S(=O)(=O)c1ccc(C(=O)O)cc1 [PROBENECID]
Not Active: IC50 [1] | IC50 [2] | IC50 (Melanocortin receptor 3) | IC50 [3] | Ki [3] | IC50 [4] | IC50 [5] | IC50 [6]

C#CC1(O)CC[C@H]2[C@@H]3CCC4=CC(=O)CC[C@@H]4[C@H]3CC[C@@]21CC (stereo not given in full) [NORGESTREL]
Not Active: IC50 [1] | IC50 [2] | IC50 (Melanocortin receptor 3) | IC50 [3] | Ki [3] | IC50 [4] | IC50 [5] | IC50 [6]

CC[C@H]1CN2CCc3cc(OC)c(OC)cc3[C@@H]2C[C@@H]1C[C@H]1NCCc2cc(OC)c(OC)cc21 [EMETINE]
Not Active: IC50 [1] | IC50 [2] | IC50 (Melanocortin receptor 3) | IC50 [3] | Ki [3] | IC50 [4] | IC50 [5] | IC50 [6]
